{"source": "patent US6469013B2", "about": "“Therapeutic compounds” (Parker Hughes Institute, priority 1998, dated 2002)", "key": {"human JAK3": {"molecular_target": "T1, human JAK3 (Homo sapiens, UniProt P52333)", "T1 sequence (P52333 1-1124)": "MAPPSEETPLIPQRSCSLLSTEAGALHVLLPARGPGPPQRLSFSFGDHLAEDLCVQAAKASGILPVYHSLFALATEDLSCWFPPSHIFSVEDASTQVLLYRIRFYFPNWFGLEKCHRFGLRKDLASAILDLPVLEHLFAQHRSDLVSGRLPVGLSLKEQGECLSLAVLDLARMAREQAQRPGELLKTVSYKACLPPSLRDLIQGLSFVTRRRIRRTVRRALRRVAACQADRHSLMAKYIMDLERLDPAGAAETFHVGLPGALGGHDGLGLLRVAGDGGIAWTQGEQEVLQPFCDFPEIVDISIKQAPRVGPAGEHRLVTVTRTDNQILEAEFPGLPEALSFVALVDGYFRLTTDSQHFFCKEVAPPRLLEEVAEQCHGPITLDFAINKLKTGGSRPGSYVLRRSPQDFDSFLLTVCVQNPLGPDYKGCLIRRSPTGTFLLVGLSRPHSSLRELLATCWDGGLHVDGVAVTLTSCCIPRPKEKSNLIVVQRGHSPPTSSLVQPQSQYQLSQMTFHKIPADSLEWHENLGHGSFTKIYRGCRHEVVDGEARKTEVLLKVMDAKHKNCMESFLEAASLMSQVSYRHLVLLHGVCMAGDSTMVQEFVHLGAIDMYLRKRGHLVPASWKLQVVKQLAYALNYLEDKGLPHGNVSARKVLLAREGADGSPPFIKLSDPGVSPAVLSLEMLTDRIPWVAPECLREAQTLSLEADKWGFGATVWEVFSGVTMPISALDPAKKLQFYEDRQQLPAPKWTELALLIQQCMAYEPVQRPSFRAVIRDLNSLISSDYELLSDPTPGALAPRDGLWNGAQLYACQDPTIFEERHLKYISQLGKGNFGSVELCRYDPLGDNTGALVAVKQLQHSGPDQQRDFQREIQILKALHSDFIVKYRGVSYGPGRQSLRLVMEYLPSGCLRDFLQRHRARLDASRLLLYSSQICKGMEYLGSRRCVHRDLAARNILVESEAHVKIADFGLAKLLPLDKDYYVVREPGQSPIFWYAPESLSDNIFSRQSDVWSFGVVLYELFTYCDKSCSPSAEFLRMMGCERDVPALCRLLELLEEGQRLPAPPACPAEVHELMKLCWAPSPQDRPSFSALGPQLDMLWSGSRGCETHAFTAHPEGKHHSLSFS", "assay": "JAK3 immune complex kinase assay (JAK3 immunoprecipitated from KL2 EBV-transformed B cell line)", "type": "biochemical", "settings": "JAK3 kinase assay, KL2 cell-derived human JAK3; read-out: IC50", "description": "In JAK3 immune complex kinase assays (17, 22), KL-2 EBV-transformed human lymphoblastoid B cells (native JAK3 kinase assays) or insect ovary cells (recombinant JAK3 kinase assays) were lysed with NP-40 lysis buffer (50 mM Tris, pH 8, 150 mM NaCl, 5 mM EDTA, 1% NP-40, 100 μM sodium orthovanadate, 100 μM sodium molybdate, 8 μg/ml aprotinin, 5 μg/ml leupeptin, and 500 μM PMSF) and centrifuged 10 min at 13000× g to remove insoluble material. Samples were immunoprecipitated with antisera prepared against JAK3. The antisera were diluted and immune complexes collected by incubation with 15 μl protein A Sepharose. After 4 washes with NP-40 lysis buffer, the protein A Sepharose beads were washed once in kinase buffer (20 mM MOPS, pH7, 10 mM MgCl2) and resuspended in the same buffer. Reactions were initiated by the addition of 25 μCi [γ^32P] ATP (5000 Ci/mMole) and unlabeled ATP to a final concentration of 5 μM. Reactions were terminated by boiling for 4 min in SDS sample buffer. Samples were run on 9.5% SDS polyacrylamide gels and labeled proteins were detected by autoradiography. Following electrophoresis, kinase gels were dried onto Whatman 3M filter paper and subjected to phosphorimaging on a Molecular Imager (Bio-Rad, Hercules, Calif.) as well as autoradiography on film. For each drug concentration, a kinase activity index (KA) was determined by comparing the kinase activity in phosphorimager units (PIU) to that of the baseline sample. In some experiments, cold kinase assays were performed, as described by (Uckun, F. M., et al., Clin. Can. Res. 4: 901-912, 1998).\nWe first used immune complex kinase assays to compare the effects of the synthesized dimethoxyquinazoline compounds on the enzymatic activity of human JAK3 immunoprecipitated from the KL2 EBV-transformed human lymphoblastoid B cell line."}, "C57BL/6 male mice": {"test_system": "C57BL/6 male mice", "assay": "Low-dose streptozotocin (LDSTZ) diabetes model", "type": "in vivo, mouse", "settings": "100 mg/kg daily i.p.", "description": "C57BL/6 male mice or JAK3-deficient and WT mice (8-10-wk-old) were injected intraperitoneally with low-dose (40 mg/kg ) of STZ (Sigma, St Louis, Mo.) daily for 5 consecutive days, for induction of autoimmune experimental diabetes (LDSTZ). STZ was dissolved in citrate buffer pH 4.0 on ice, and injected within 10 min of preparation. Mice were monitored for diabetes development by testing blood glucose from the second week (day 7) after the STZ administrations by One Touch Profile diabetes tracking system (Lifescan, Milpitas, Calif.). Mice with glycemia over 220 mg/dl on three consecutive tests were considered diabetic, with the first detection of chronic glycemia taken as the date of diabetes onset. A group of C57BL/6 males was treated with WHI-P131-100 mg/kg/day, i.p., devided in two equal doses, from a beggining of the experiment till day 25."}}, "data": [{"molecule": "COc1cc2ncnc(Nc3ccc(O)cc3)c2cc1OC", "note": "[WHI-P131, 4-(4′-hydroxyl-phenyl)-amino-6,7-dimethoxyquinazoline]", "values": [{"measurement": "IC50", "setting": "human JAK3", "value": 9.1, "unit": "µM"}, {"measurement": "diabetic mice", "setting": "C57BL/6 male mice; day 7 post first STZ injection", "value": 20, "unit": "%"}, {"measurement": "diabetic mice", "setting": "C57BL/6 male mice; day 9", "value": 50, "unit": "%"}, {"measurement": "diabetic mice", "setting": "C57BL/6 male mice; day 11", "value": 65, "unit": "%"}]}]}
